Test results as given in US8946301B2, “Targeting of T-lymphocytes to treat amyotrophic lateral sclerosis” (ALS Therapy Development Institute, priority 2011, dated 2015).
“Also recorded” adds a separate entry of the source. Where two headings read alike, the source gives them in different places.

How the values were obtained:
[1] = Pharmacokinetic profile of fingolimod in plasma and spinal cord of SOD1 mice; assay type: in vivo; details: G93A-SOD1 transgenic, mouse, male SOD1 mice, single IP bolus 6.7 mg/kg
Description: FIG. 1A is a chart showing the plasma pharmacokinetic profile for fingolimod in male SOD1 mice after a single IP bolus 6.7 mg/kg.
FIG. 1B is a chart showing the spinal cord pharmacokinetic profile for fingolimod in male SOD1 mice after a single IP bolus 6.7 mg/kg.
The pharmacokinetic study provided reagent distribution and elimination parameters in order to guide future in vivo studies. […] Because of the longer than usual half-life of fingolimod, the time points for PK harvest extended beyond the typical 9 point small molecule PK study executed at ALS Therapy Development Institute (ALSTDI, Cambridge, Mass.). Time points included 0, 0.083 hours, 0.25 hours, 0.5 hours, 0.75 hours, 1 hour, 2 hours, 4 hours, 6 hours, 8 hours, 12 hours, 24 hours, 48 hours, 72 hours, and 96 hours.
G93A-SOD1 transgenic mice (shortened to “SOD1 mice”) are mutant for superoxide dismutase 1 (SOD1) and are used as a disease model because of the phenotypic and pathologic resemblance to sporadic and familial human ALS. The SOD1 mice overexpress the superoxide dismutase, CCS, to develop an accelerated disease course that is associated with enhanced mitochondrial pathology and increased mitochondrial localization of mutant SOD1. The results of the fingolimod concentration studies were consistent with published reports for fingolimod in other tissues and models. Tissues analyzed included plasma (FIG. 1A) and spinal cord (FIG. 1B). Fingolimod treated animals were then divided into two groups using two separate doping regimens: • Low Dose Fingolimod Group: IP Load 0.44 mg/kg, Maintenance 0.32 mg/kg every 7 days (q7d), and • High Dose Fingolimod Group: IP Load 2.5 mg/kg, Maintenance 1.8 mg/kg q7d.

CD8+ lymphocytes = test: FACS analysis of circulating CD8+ lymphocytes in whole blood of SOD1 mice; assay type: in vivo, mouse; details: for CD8+ cells in whole blood: 4 hours after third dose, control approximately 5%
Description: FIG. 3A is a fluorescent activated cell sorting (FACS) analysis showing the reduction of CD8+ lymphocytes in the circulation of male SOD1 mice that results from fingolimod treatment. A high dose of fingolimod (IP Loading Dose 2.5 mg/kg, Maintenance Dose 1.8 mg/kg q7d), a low dose of fingolimod (IP Loading Dose 0.44 mg/kg, Maintenance Dose 0.32 mg/kg) and a vehicle control group were tested over 14 days. Tissues were harvested 4 hours after the third dose. This time point was selected to best characterize the behavior of lymphocytes when circulating levels of the drug were near peak.
The following dosage regimen was used to determine the dose dependent effects of fingolimod in SOD1 mice: • Cohorts: • 1) SOD1 Fingolimod Treated “High Dose” (Load 2.5 mg/kg, 1.8 mg/kg Oral q7d) • 4 hour post final dose harvest • 7 day post final dose harvest • 2) SOD1 Fingolimod Treated “Low Dose” (Load 0.44 mg/kg, 0.32 mg/kg Oral q7d) • 4 hour post final dose harvest • 7 day post final dose harvest • 3) SOD1 Vehicle Control • 4 hour post final dose harvest • 7 day post final dose harvest
The predicted plasma fingolimod load for both the high dose and the low dose regimes were determined, see FIGS. 2A and 2B. Tissues were harvested 4 hours after the third fingolimod dose. This time point was selected to best characterize the behavior of lymphocytes in animals treated with fingolimod when circulating levels of the drug are near peak concentration.

[2] = system: CD11b positive macrophages; test: Macrophage infiltration into gastrocnemius muscle / peripheral axons (anti-CD11b staining); assay type: in vivo, mouse; details: SOD1 animals, load 2.5 mg/kg then 1.8 mg/kg oral weekly from day 50, gastrocnemius at day 100, vs untreated SOD1
Description: SOD1 animals were treated with a loading dose of 2.5 mg/kg fingolimod, followed by weekly oral dosing of 1.8 mg/kg. Dosing was initiated at 50 days of age for the three cohorts: • 1) Non transgenic controls • 2) untreated SOD1 • 3) SOD1 Fingolimod Treated “High Dose” (Load 2.5 mg/kg, 1.8 mg/kg Oral q7d)
Gastrocnemius muscle was harvested from non-transgenic control, untreated SOD1 and fingolimod treated animals at 100 days of age. Tissues were immediately embedded in OCT after harvesting. Frozen sections were H&E stained and hybridized with antibodies to detect macrophages (αCD11b antibody).

[3] = system: lymphocytes in the spleen; test: Lymphocyte cell counts in spleen by FACS; assay type: in vivo, mouse; details: vs untreated SOD1
Description: FIG. 5 is a graph showing cell counts in spleens of animals. SOD1 animals received a loading dose of 2.5 mg/kg fingolimod orally, then oral 1.8 mg/kg once weekly for 3 weeks. Lymphocyte counts were measured via FACS for various cell surface antigens in the spleen.
Lymphocytes were also measured in the spleens of SOD1 fingolimod treated mice and untreated SOD1 mice. After sacrifice, spleens were harvested from each animal and subjected to fluorescent activated cell sorting for each of the cell surface antigens: CD11b, CD28, CD3, CD4, CD86, […], and LY6G.

blood cells = test: Complete blood cell counts in whole blood; assay type: in vivo, mouse; details: vs untreated SOD1
Description: FIG. 6 is a graph showing complete blood cell counts in whole blood. SOD1 animals received a loading dose of 2.5 mg/kg fingolimod orally, then oral 1.8 mg/kg once weekly for 3 weeks. Complete blood cell counts included basophils (BAS), eosinophils (EOS), monocytes (MON), lymphocytes (LYM), neutrophils (NEU), and white blood cells (WBC).
Whole blood counts were also measured. Upon sacrifice, blood was removed and complete blood cell counts were performed.

[4] = whole blood, vs vehicle control
[5] = load 2.5 mg/kg oral then 1.8 mg/kg once weekly for 3 weeks

CCCCCCCCc1ccc(CCC(N)(CO)CO)cc1 [fingolimod, 2-amino-2-(4-octylphenethyl)propane-1,3-diol]
Cmax ([1]; plasma, read-out: plasma Cmax): 185 ng/mL | half-life ([1]; plasma, read-out: plasma half-life (converted)): 31.4 h | Cmax ([1]; spinal cord, read-out: spinal cord Cmax): 630 ng/mL | half-life ([1]; spinal cord, read-out: spinal cord half-life (converted)): 89.2 h | circulating CD8 positive cells in whole / peripheral blood (in words) (CD8+ lymphocytes; SOD1 animals, high and low dose groups): fewer; also recorded: transiently depletes | CD8+ cells in whole blood (CD8+ lymphocytes; high dose (load 2.5 mg/kg, 1.8 mg/kg q7d)): less than 2% | CD8+ cells in whole blood (CD8+ lymphocytes; low dose (load 0.44 mg/kg, 0.32 mg/kg q7d)): less than 2% | reduction in CD8+ cells (CD8+ lymphocytes; [4]): > 66% | reduction in CD8+ cells (fold) (CD8+ lymphocytes; [4]): over three-fold | CD11b positive macrophages infiltrating the skeletal muscle / peripheral axons [2]: significantly fewer | CD11b positive macrophages infiltrating the skeletal muscle / peripheral axons ([2]; listed as Fingolimod): ability to block macrophage infiltration into peripheral axons | lymphocyte count, CD11b [3, 5]: decreased lymphocyte count | lymphocyte count, CD3 ([3]; same regimen): decreased lymphocyte count | lymphocyte count, CD4 ([3]; same regimen): decreased lymphocyte count | lymphocyte count, CD28 ([3]; same regimen): decreased lymphocyte count | lymphocyte count, CD86 ([3]; same regimen): decreased lymphocyte count | lymphocyte count, CTLA34 ([3]; same regimen): decreased lymphocyte count | lymphocyte count, LY6G ([3]; same regimen): decreased lymphocyte count | basophils (BAS) count (blood cells; [5]): decreased numbers | eosinophils (EOS) count (blood cells; same regimen): decreased numbers | lymphocytes (LYM) count (blood cells; same regimen): decreased numbers | monocytes (MON) count (blood cells; same regimen): decreased numbers | neutrophils (NEU) count (blood cells; same regimen): no significant change | white blood cells (WBC) count (blood cells; same regimen): decreased numbers
